Assay results from patent US20120238562A1, “TREATMENT OF CANCER BY TARGETING MOLECULES THAT INFLUENCE MST1/STK4 SIGNALING” (CEDARS-SINAI MEDICAL CENTER, priority 2011, published 2012).
“Also recorded” adds a separate entry of the source.

Legend:
Format in all cases: cell-based, human
Akt = Akt activation in C4-2 cells under mTOR inhibition; conditions: castration-resistant prostate cancer cells (C4-2), same conditions as Mst1-T120 hyper-phosphorylation
Description: A) Schematic representation of the GST-Mst1 peptide with wild type (wt) T120 or T120A mutations. B) In vitro kinase assay with bacterially expressed and purified GST-only, GST-Mst1-T120 wt, or GST-Mst1-T120A mutant peptide and the recombinant pre-activated Akt kinase. Western blots were probed with pMst1-T120 antibody. Ponceau S stained purified GST, GST-Mst1-T120, or GST-Mst1-T120A mutant peptide. C) LNCaP cells were treated with DMSO (vehicle) control, a specific PI3K inhibitor, LY294002 (20 μM), or mTOR inhibitor, Ku0063794 (1 μM) in serum-starved conditions. D) C4-2 cells were treated with Temsirolimus (CCI-779), an mTORC1 inhibitor (1 μM) in addition to DMSO, LY294002 and Ku0063794 under the same experimental conditions as in “C”. E) C4-2 cells treated with DMSO or LY294002 and CCI-779. Control/DMSO or drug treatment in “C,” “D,” or “E” was performed under serum-deprived conditions. Western blots were probed with antibodies to corresponding proteins at 3 h post treatment. Lam-A/C:Lamin-A/C. Data are representative of multiple experiments.
Consistent with this finding, PI3K and mTORC1 inhibition combined synergistically to prevent the proliferation of C4-2 cells compared to a single agent (FIG. 3B). […]

[1] = tested on: Mst1-T120 phosphorylation; experiment: Western blot of Mst1-T120 phosphorylation in cytoplasmic and nuclear fractions of C4-2 cells; conditions: serum-deprived, 3 h post treatment, vs DMSO control, LY294002 20 μM, Ku0063794 1 μM, CCI-779 1 μM
Description: (§1) A) Schematic representation of the GST-Mst1 peptide with wild type (wt) T120 or T120A mutations. B) In vitro kinase assay with bacterially expressed and purified GST-only, GST-Mst1-T120 wt, or GST-Mst1-T120A mutant peptide and the recombinant pre-activated Akt kinase. Western blots were probed with pMst1-T120 antibody. Ponceau S stained purified GST, GST-Mst1-T120, or GST-Mst1-T120A mutant peptide. C) LNCaP cells were treated with DMSO (vehicle) control, a specific PI3K inhibitor, LY294002 (20 μM), or mTOR inhibitor, Ku0063794 (1 μM) in serum-starved conditions. […]
(§2) A nuclear extraction kit according to the manufacturer's protocol (Affymetrix, Santa Clara, Calif.) was used to isolate cytoplasmic and nuclear fractions. […] Protein concentrations were determined by the Lowry method (Bio-Rad, Hercules, Calif.). […] Signals were detected using SuperSignal West Pico Chemiluminescence Substrate (Thermo Scientific, Roxford, Ill.).
(§3) The inventors generated GST-Mst1 peptide with T120-wt or T120A mutations (FIG. 2A). […] The inventors then assessed the effects of PI3K-Akt inhibition on Mst1-T120 phosphorylation in its respective location in the cell. […] The levels of phospho-Mst1-T120 were assessed by western blot in cytoplasmic and nuclear fractions. […]

C4-2 cells = experiment: Cell proliferation by MTS assay, C4-2 cells; conditions: for C4-2 cell growth / proliferation vs control (MTS, A490 nm): 48 h post treatment, vs DMSO, Ku0063794 1 μM, rapamycin 1 μM (p<0.1), BEZ-235 0.5 μM (p<0.002)
Description: A, B) LNCaP (A) or C4-2 (B) cells were treated with control (DMSO), LY294002 (20 μM), Ku0063794 (1 μM), rapamycin (1 μM), LY294002+Ku0063794, or LY294002+Rapamycin. C) C4-2 cells were treated with DMSO or the dual PI3K and mTOR inhibitor, BEZ-235 (0.5 μM). Control or drug treatments were performed in T-medium supplemented with 5% FBS and 1% Pen/Strep. Cell proliferation was determined by MTS assay (A490 nm) at 48 h post treatment. D) Levels of endogenous total Mst1 by western blot in cytoplasmic (C) and nuclear (N) fractions from C4-2 cells that were transfected with scramble or Mst1 specific SiRNa. B-actin was used as a loading control. E) Effects of DMSO or CCI-779 on C4-2 cell proliferation with scramble or MSt1 knockdown conditions. Cell proliferation was determined by MTS (A490 nm) at 72 h post transfection. Data are representative of multiple experiments.
Cell proliferation was measured using CellTiter 96 AQueous with MTS reagent (Promega, Madison, Wis.). Briefly, cells in RPMI-medium plus 10% fetal bovine serum were added to 96-well plates at 4,000 cells per well in quadruplicate. After 24 h, LY290042, Ku0063794, Rapamycin, CCI-779 or BEZ-235 alone or combined were added, and cells were cultured for the indicated time. DMSO was used as a control. At 24 h post siRNA transfection, cells were treated with DMSO control or CCI-779 and incubated up to 72 h. MTS and phenazine methosulfate solution (20 μL/well) was added and the absorbance at 490 nm was recorded using a microplate reader (BMG Labtech; Cary, N.C.). For the clonogenic assay, 500 cells per well were seeded and cultured in 6-well plates for a week in the presence of Dox (0.5 μg/mL) in serum-fed conditions. The medium was changed every 3 days. Colonies were fixed with formaldehyde (4% v/v) and stained with crystal violet (0.5%). Representative views from triplicate experiments were photographed and quantified. […] After 14 days, colonies were photographed and quantified. […]

Mst1 = experiment: Western blot of Mst1 nuclear accumulation in C4-2 cells; conditions: Ku0063794 1 μM or CCI-779 1 μM, 3 h post treatment
Description: A) Schematic representation of the GST-Mst1 peptide with wild type (wt) T120 or T120A mutations. B) In vitro kinase assay with bacterially expressed and purified GST-only, GST-Mst1-T120 wt, or GST-Mst1-T120A mutant peptide and the recombinant pre-activated Akt kinase. Western blots were probed with pMst1-T120 antibody. Ponceau S stained purified GST, GST-Mst1-T120, or GST-Mst1-T120A mutant peptide. C) LNCaP cells were treated with DMSO (vehicle) control, a specific PI3K inhibitor, LY294002 (20 μM), or mTOR inhibitor, Ku0063794 (1 μM) in serum-starved conditions. D) C4-2 cells were treated with Temsirolimus (CCI-779), an mTORC1 inhibitor (1 μM) in addition to DMSO, LY294002 and Ku0063794 under the same experimental conditions as in “C”. E) C4-2 cells treated with DMSO or LY294002 and CCI-779. Control/DMSO or drug treatment in “C,” “D,” or “E” was performed under serum-deprived conditions. Western blots were probed with antibodies to corresponding proteins at 3 h post treatment. Lam-A/C:Lamin-A/C. […]
as §2, with “Ill.). […]” for “Ill.).”

[2] = tested on: Mst1-T183 phosphorylation; experiment: Mst1-T183 phosphorylation in treated prostate cancer cells; conditions: prostate cancer cells treated with inhibitor
Description: However, the levels of […] phosphorylation were unchanged when cells were treated with a potent mTOR inhibitor, Ku0063794, (FIG. 3). […] Based on these observations, the inventors therefore conclude that Mst1-phosphorylation at T120 or at […] are unrelated events or is modulated by different mechanisms, at least in prostate cancer cells.

[3] = tested on: Mst1-T120 phosphorylation; experiment: Western blot of Mst1-T120 phosphorylation in cytoplasmic and nuclear fractions of LNCaP cells; conditions: serum-starved, 3 h post treatment, vs DMSO control, LY294002 20 μM, Ku0063794 1 μM
Description: as §1, §2, §3

Row | SMILES | Akt activation (Akt) | Mst1-T120 phosphorylation [1] | C4-2 cell proliferation under Mst1 knockdown vs scramble siRNA (MTS, A490 nm) (C4-2 cells; Mst1 siRNA vs scramble siRNA, CCI-779 vs DMSO, 72 h post transfection) | Mst1 nuclear accumulation (Mst1) | C4-2 cell growth / proliferation vs control (MTS, A490 nm) (C4-2 cells) | Mst1-T183 phosphorylation [2] | Mst1-T120 phosphorylation in cell nuclei [3]
1 | CO[C@H]1C[C@@H]2CC[C@@H](C)[C@@](O)(O2)C(=O)C(=O)N2CCCC[C@H]2C(=O)O[C@H]([C@H](C)C[C@@H]2CC[C@@H](OC(=O)C(C)(CO)CO)[C@H](OC)C2)CC(=O)[C@H](C)/C=C(\C)[C@@H](O)[C@@H](OC)C(=O)[C@H](C)C[C@H](C)/C=C/C=C/C=C/1C [CCI-779, temsirolimus] | did not observe Akt activation | hyper-phosphorylation; also recorded: hyperphosphorylation | sensitized | increase |  |  | 
2 | Cn1c(=O)n(-c2ccc(C(C)(C)C#N)cc2)c2c3cc(-c4cnc5ccccc5c4)ccc3ncc21 [BEZ-235] |  |  |  |  | significantly inhibited |  | 
3 | COc1ccc(-c2ccc3c(N4CCOCC4)nc(N4C[C@@H](C)O[C@@H](C)C4)nc3n2)cc1CO [Ku0063794] | did not observe Akt activation | hyper-phosphorylation; also recorded: hyperphosphorylation |  | increase | failed to significantly inhibit | unchanged | unable to prevent
